In US12459951B2, “Compounds that interact with RAS superfamily proteins for treatment of cancers, inflammatory diseases, rasopathies, and fibrotic disease” (SHY Therapeutics, LLC, priority 2022, dated 2025):

How the values were obtained:
IL6 = test: IL-6 Quantification Assay (ELISA), LPS-stimulated RAW 264.7; type: cell-based; parameters: inhibition: dose or concentration left out as unconfirmed; conditions: Mus musculus, RAW264.7; read-out: IL-6: % inh.
Akt phosphorylation = test: Akt Phosphorylation Assay (western blot), Panc-1; type: cell-based, human; conditions: at 10 μM, * = activation
Outline: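 Phospho-Akt (Ser473) was measured by western blot in lysates of KRas G12D Panc-1 cells exposed to test compound for 6 h at 37 °C, either at 10 μM final with 0.3% DMSO or as serial dilutions for IC50. One format used overnight 0.5% FBS starvation followed by a 15 min pulse of 1.5 ng/ml EGF. The other used cells in 10% FBS with no stimulation.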

Erk1/2 phosphorylation = test: Erk1/2 Phosphorylation Assay (western blot), Panc-1; type: cell-based, human; conditions: at 10 μM, * = activation
Outline: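 Phospho-Erk1/2 (Thr202/Tyr204) was detected by western blot in lysates of Panc-1 cells (KRas G12D). These had 6 h, 37° C exposure to 10 μM compound or a dilution series for IC50, in 0.3% DMSO. Cells were either starved overnight in 0.5% FBS with a 15-min 1.5 ng/ml EGF pulse, or kept unstimulated in 10% FBS.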

Row | SMILES | inhibition (IL6) [%] | % inh of Akt phosphorylation in Panc-1 (Akt phosphorylation) | % inh of Erk1/2 phosphorylation in Panc-1 (Erk1/2 phosphorylation)
1 | CO[C@@H]1C[C@H]1Nc1nc(-c2nccn2C)nn2cc(-c3ccncc3)c(-c3ccccc3)c12 (racemic) [Compound 197, rac N-((1R,2R)-2-methoxycyclopropyl)-2-(1-methyl-1H-imidazol-2-yl)-5-phenyl-6-(pyridin-4-yl)pyrrolo[2,1-f][1,2,4]triazin-4-amine] | 50 to 74 | A* (1-25% activation) | D* (85-100% activation)
2 | CO[C@H]1C[C@H](Nc2nc(-c3nccn3C)nn3cc(-c4ccc(OCCN)cc4)c(-c4ccccc4)c23)C1.Cl [Compound 208, 6-(4-(2-Aminoethoxy)phenyl)-N-((1r,3r)-3-methoxycyclobutyl)-2-(1-methyl-1H-imidazol-2-yl)-5-phenylpyrrolo[2,1-f][1,2,4]triazin-4-amine hydrochloride salt] | 75 to 100 | D* (85-100% activation) | C* (46-84% activation)
3 | Cc1c(-c2ccn(C)n2)cn2nc(-c3nccn3C)nc(Nc3ccc(N4CCCC4)cn3)c12 [Compound 228, 5-Methyl-2-(1-methyl-1H-imidazol-2-yl)-6-(1-methyl-1H-pyrazol-3-yl)-N-(5-(pyrrolidin-1-yl)pyridin-2-yl)pyrrolo[2,1-f][1,2,4]triazin-4-amine] | 25 to 49 | D* (85-100% activation) | A* (1-25% activation)
4 | CO[C@H]1C[C@H](Nc2nc(-c3nccn3C)nn3cc(-c4cccc(CN)c4)c(-c4ccccc4)c23)C1 [Compound 204, 6-(3-(aminomethyl)phenyl)-N-((1r,3r)-3-methoxycyclobutyl)-2-(1-methyl-1H-imidazol-2-yl)-5-phenylpyrrolo[2,1-f][1,2,4]triazin-4-amine] | 75 to 100 | C* (46-84% activation) | D* (85-100% activation)
5 | COc1ccnc(Nc2nc(-c3nccn3C)nn3cc(-c4ccn(CCNC(=O)CCCC[C@H]5SC[C@H]6NC(=O)N[C@H]65)n4)c(C)c23)c1 [Compound 215, N-(2-(3-(4-((4-methoxypyridin-2-yl)amino)-5-methyl-2-(1-methyl-1H-imidazol-2-yl)pyrrolo[2,1-f][1,2,4]triazin-6-yl)-1H-pyrazol-1-yl)ethyl)-5-((3aR,4R,6aS)-2-oxohexahydro-1H-thieno[3,4-d]imidazol-4-yl)pentanamide] | 1 to 24 | B* (26-49% activation) | A* (1-25% activation)
6 | CO[C@H]1CC[C@H](Nc2nc(-c3nccn3C)nn3cc(-c4ccn(C)n4)c(C(=O)NCC(F)(F)F)c23)C1 (racemic) [Compound 181, 4-(((1S,3S)-3-Methoxycyclopentyl)amino)-2-(1-methyl-1H-imidazol-2-yl)-6-(1-methyl-1H-pyrazol-3-yl)-N-(2,2,2-trifluoroethyl)pyrrolo[2,1-f][1,2,4]triazine-5-carboxamide] | 50 to 74 | B* (26-49% activation) | A (1-25% inhibition)
7 | COc1ccnc(Nc2nc(-c3nccn3C)nn3cc(-c4ccn(C)n4)c(C(=O)N4CCOCC4)c23)c1 [Compound 179, (4-((4-Methoxypyridin-2-yl)amino)-2-(1-methyl-1H-imidazol-2-yl)-6-(1-methyl-1H-pyrazol-3-yl)pyrrolo[2,1-f][1,2,4]triazin-5-yl)(morpho-lino)methanone] | 50 to 74 | D* (85-100% activation) | D* (85-100% activation)
8 | Cc1c(-c2ccn(C)n2)cn2nc(-c3nccn3C)nc(Nc3ccc(-n4ccnc4)cn3)c12 [Compound 242, N-(5-(1H-Imidazol-1-yl)pyridin-2-yl)-5-methyl-2-(1-methyl-1H-imidazol-2-yl)-6-(1-methyl-1H-pyrazol-3-yl)pyrrolo[2,1-f][1,2,4]triazin-4-amine] | 25 to 49 | D* (85-100% activation) | 0 (0% inhibition)
9 | CO[C@H]1C[C@@H](Nc2nc(-c3nccn3C)nn3cc(-c4ccncc4)c(-c4ccccc4)c23)C1 [Compound 198, N-((1s,3s)-3-Methoxycyclobutyl)-2-(1-methyl-1H-imidazol-2-yl)-5-phenyl-6-(pyridin-4-yl)pyrrolo[2,1-f][1,2,4]triazin-4-amine] | 25 to 49 | C (50-84% inhibition) | D* (85-100% activation)
10 | Cc1c(-c2ccn(C)n2)cn2nc(-c3nccn3C)nc(Nc3ccc(-n4ccnc4C)cn3)c12 [Compound 243, 5-Methyl-N-(5-(2-methyl-1H-imidazol-1-yl)pyridin-2-yl)-2-(1-methyl-1H-imidazol-2-yl)-6-(1-methyl-1H-pyrazol-3-yl)pyrrolo[2,1-f][1,2,4]triazin-4-amine] | 0 | D* (85-100% activation) | C* (46-84% activation)
11 | CO[C@H]1CC[C@H](Nc2nc(-c3nccn3C)nn3cc(-c4ccn(C)n4)c(C(=O)NCCN4CCOCC4)c23)C1 (racemic) [Compound 185, rac 4-(((1S,3S)-3-methoxycyclo-pentyl)amino)-2-(1-methyl-1H-imidazol-2-yl)-6-(1-methyl-1H-pyrazol-3-yl)-N-(2-morpholino-ethyl)pyrrolo[2,1-f][1,2,4]triazine-5-carboxamide] | 25 to 49 | A (1-25% inhibition) | B (26-49% inhibition)
12 | COCC1CCN(c2nc(-c3ccccn3)nn3cc(-c4ccn(C(C)C)n4)c(C)c23)C1 (racemic) [Compound 10, rac 6-(1-Isopropyl-1H-pyrazol-3-yl)-4-(3-(methoxymethyl)pyrrolidin-1-yl)-5-methyl-2-(pyridin-2-yl)pyrrolo[2,1-f][1,2,4]triazine] | 25 to 49 | 0 (0% inhibition) | 0 (0% inhibition)
13 | COCCNC(=O)c1c(-c2ccn(C)n2)cn2nc(-c3nccn3C)nc(Nc3cc(OC)ccn3)c12 [Compound 176, N-(2-Methoxyethyl)-4-((4-methoxypyridin-2-yl)amino)-2-(1-methyl-1H-imidazol-2-yl)-6-(1-methyl-1H-pyrazol-3-yl)pyrrolo[2,1-f][1,2,4]triazine-5-carboxamide] | 75 to 100 | D* (85-100% activation) | D* (85-100% activation)
14 | Cc1c(-c2ccn(C)n2)cn2nc(-c3nccn3C)nc(Nc3ccc(C(F)F)cn3)c12 [Compound 234, N-(5-(Difluoromethyl)pyridin-2-yl)-5-methyl-2-(1-methyl-1H-imidazol-2-yl)-6-(1-methyl-1H-pyrazol-3-yl)pyrrolo[2,1-f][1,2,4]triazin-4-amine] | 1 to 24 | D* (85-100% activation) | D* (85-100% activation)
15 | CO[C@H]1C[C@H](S(=O)(=O)Nc2nc(-c3nccn3C)nn3cc(-c4ccccc4)c(-c4ccccc4)c23)C1 [Compound 214, (1r,3r)-3-Methoxy-N-(2-(1-methyl-1H-imidazol-2-yl)-5,6-diphenylpyrrolo[2,1-f][1,2,4]triazin-4-yl)cyclobutane-1-sulfonamide] | 1 to 24 | A* (1-25% activation) | A* (1-25% activation)
16 | CO[C@H]1C[C@H](Nc2nc(-c3nccn3C)nn3cc(-c4cccnc4)c(-c4ccccc4)c23)C1 [Compound 192, N-((1r,3r)-3-Methoxycyclobutyl)-2-(1-methyl-1H-imidazol-2-yl)-5-phenyl-6-(pyridin-3-yl)pyrrolo[2,1-f][1,2,4]triazin-4-amine] | 75 to 100 | D* (85-100% activation) | D* (85-100% activation)
17 | COc1cccc(-c2cn3nc(-c4nccn4C)nc(N[C@H]4C[C@H](OC)C4)c3c2-c2ccccc2)c1C [Compound 209, 6-(3-methoxy-2-methylphenyl)-N-((1r,3r)-3-methoxycyclobutyl)-2-(1-methyl-1H-imidazol-2-yl)-5-phenylpyrrolo[2,1-f][1,2,4]triazin-4-amine] | 75 to 100 | D (85-100% inhibition) | D (85-100% inhibition)
18 | CO[C@H]1CC[C@H](Nc2nc(-c3nccn3C)nn3cc(-c4ccn(C)n4)c(C(=O)NC4CC4)c23)C1 (racemic) [Compound 182, rac N-Cyclopropyl-4-(((1S,3S)-3-methoxycyclo-pentyl)amino)-2-(1-methyl-1H-imidazol-2-yl)-6-(1-methyl-1H-pyrazol-3-yl)pyrrolo[2,1-f][1,2,4]triazine-5-carboxamide] | 25 to 49 | B* (26-49% activation) | A* (1-25% activation)
19 | CO[C@H]1C[C@H](Nc2nc(-c3nccn3C)nn3cc(-c4cccc(OCCN)c4)c(-c4ccccc4)c23)C1 [Compound 205, 6-(3-(2-Aminoethoxy)phenyl)-N-((1r,3r)-3-methoxycyclobutyl)-2-(1-methyl-1H-imidazol-2-yl)-5-phenylpyrrolo[2,1-f][1,2,4]triazin-4-amine] |  | C* (46-84% activation) | D* (85-100% activation)
